In patent US20070197585A1, “Use of cysteinyl leukotriene 2 receptor antagonists” (priority 2004, published 2007) one finds IC50 and melting point data, which are given here for one compound.

The target in data set [1] is T1, CysLT1 receptor (Homo sapiens, UniProt Q9Y271).
T1 construct: expressed in transfected cells; host or cells: HEK293T
T1 sequence (Q9Y271 1-337): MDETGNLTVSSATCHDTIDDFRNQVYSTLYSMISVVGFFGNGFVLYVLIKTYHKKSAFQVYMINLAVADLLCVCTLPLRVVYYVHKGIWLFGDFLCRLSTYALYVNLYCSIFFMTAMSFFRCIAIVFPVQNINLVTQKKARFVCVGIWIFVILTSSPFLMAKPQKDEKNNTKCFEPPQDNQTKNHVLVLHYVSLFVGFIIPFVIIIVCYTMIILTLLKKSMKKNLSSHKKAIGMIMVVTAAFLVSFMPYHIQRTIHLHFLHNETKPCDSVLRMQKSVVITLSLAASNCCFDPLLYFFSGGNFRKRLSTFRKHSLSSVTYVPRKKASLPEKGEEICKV
In words: LTD4-induced calcium flux (calcium mobilization, FLIPR) in CysLT1 receptor transfected HEK293T cells. It is filed as cell-based. The conditions noted are these: antagonist dose-response curve, read-out: IC50 of blocking LTD4-induced calcium flux, CysLT1 receptor. As for the experimental part:
(§1) Compounds may be screened for effects on LTD4 induced calcium mobilization in cells transfected with CysLT2 receptor, according to the following calcium mobilization assay.
(§2) Human embryonic kidney (HEK293T) cells transiently transfected with the CysLT2 receptor using LipofectAMINE™2000 reagent (Life Technologies) or Chinese hamster ovary (CHO-NFAT) cells stably transfected with the CysLT2 type receptor are plated into Poly-D-Lysine treated black-wall microplates (Biocoat™) at 5×10^4 cells per well. Cells are maintained for approximately 24 hours at 37° C. and 5% CO2. After 24 hours, cells are loaded with Fluo4 calcium indicator dye (Molecular Probes) in the presence of 2.5 mM probenecid for one hour. After washing, the cells are treated with agonist, (10 nM LTD4, BioMol), and maximum fluorescence measured in a Molecular Devices Fluorometric Imaging Plate Reader (FLIPR). Compounds screened for antagonism are added five minutes prior to addition of agonist.
Compounds of interest from the CysLT2 receptor screen may also be assayed in a CysLT1 receptor counter screen. Compounds of interest may be assayed using the same protocol described above in cells transfected with the CysLT1 receptor.
(§3) Agonist and Standard Antagonist Functional Characterization on Human CysLT1 and CysLT2 Receptors

Data set [2] deals with T2, CysLT2 receptor (Homo sapiens, UniProt Q9NS75).
T2 construct: expressed in transfected cells
T2 sequence (Q9NS75 1-346): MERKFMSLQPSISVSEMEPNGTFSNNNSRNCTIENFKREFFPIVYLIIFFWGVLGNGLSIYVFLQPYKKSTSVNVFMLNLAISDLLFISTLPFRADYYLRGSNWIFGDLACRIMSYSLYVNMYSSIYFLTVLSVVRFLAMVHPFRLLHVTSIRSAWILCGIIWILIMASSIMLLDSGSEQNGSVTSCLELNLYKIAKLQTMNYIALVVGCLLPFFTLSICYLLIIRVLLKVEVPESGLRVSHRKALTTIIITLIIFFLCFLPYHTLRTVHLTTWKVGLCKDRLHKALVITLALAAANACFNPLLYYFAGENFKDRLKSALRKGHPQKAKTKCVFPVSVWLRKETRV
The data set is described as follows: LTD4-induced calcium flux (calcium mobilization, FLIPR) in CysLT2 receptor-transfected cells. Type of data set: cell-based. The conditions noted are these: antagonist dose-response curve, read-out: IC50 of blocking LTD4-induced calcium flux, CysLT2 receptor. As for the experimental part:
as §1, §2, §3

The compound `CCCCCCCCCc1ccc(C(Sc2cccc(NC(=O)CC(=O)O)c2)C(=O)CCCC(=O)O)cc1` (stereo not drawn) [Compound (I), 6-({3-[(carboxyacetyl)amino]phenyl}thio)-6-(4-nonylphenyl)-5-oxohexanoic acid] yielded a melting point of 88 to 91 °C. Further, the IC50 in data set [1] is below 10 µM. For the same compound, the half-inhibitory concentration (IC50) in data set [2] is below 10 µM.

As usually defined, the IC50 is the concentration that inhibits the measured activity by half. By melting point is commonly meant the temperature of the solid-liquid transition.
